Results: patent US9487502B2, “Chemical compounds” (Syngenta Limited, priority 2013, dated 2016)

What was measured:
Assay type in all cases: in vivo
Set-up in all cases: key: 5=total damage to plant; 0=no damage to plant
Abutilon theophrasti [1] = assay: Pre-emergence herbicidal activity, ABUTH; details: 1000 g/Ha, sprayed pre-emergence, evaluated after 13 days, scale 0-5
Summary of the method: (§1)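 Pre-emergence spray, one day post-sowing; vehicle acetone/water (50:50) + 0.5% Tween 20, aqueous dilution. Glasshouse 24/16 °C, 14 h light, 65% RH, watering twice daily. Score at 13 d on 0–5 scale, 5 = total damage.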

Amaranthus retroflexus [2] = assay: Pre-emergence herbicidal activity, AMARE; details: 1000 g/Ha, sprayed pre-emergence, evaluated after 13 days, scale 0-5
Summary of the method: as §1

Setaria faberi [3] = assay: Pre-emergence herbicidal activity, SETFA; details: 1000 g/Ha, sprayed pre-emergence, evaluated after 13 days, scale 0-5
Summary of the method: as §1

Echinochloa crus-galli [4] = assay: Pre-emergence herbicidal activity, ECHCG; details: 1000 g/Ha, sprayed pre-emergence, evaluated after 13 days, scale 0-5
Summary of the method: as §1

Alopecurus myosuroides [5] = assay: Pre-emergence herbicidal activity, ALOMY; details: 1000 g/Ha, sprayed pre-emergence, evaluated after 13 days, scale 0-5
Summary of the method: as §1

Zea mays [6] = assay: Pre-emergence herbicidal activity, ZEAMX; details: 1000 g/Ha, sprayed pre-emergence, evaluated after 13 days, scale 0-5
Summary of the method: as §1

Setaria faberi [7] = assay: Post-emergence herbicidal activity, SETFA; details: 1000 g/Ha, sprayed post-emergence (8 days cultivation), evaluated after 13 days, scale 0-5
Summary of the method: (§2)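 Pot-grown seedlings sprayed 8 days after sowing with active ingredient in acetone/water (50:50) plus 0.5% Tween 20. Glasshouse at 24/16 °C day/night, 14 h light, 65% humidity, watered twice daily. Damage scored after 13 days on a 0–5 scale (5 = total damage, 0 = none).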

Abutilon theophrasti [8] = assay: Post-emergence herbicidal activity, ABUTH; details: 1000 g/Ha, sprayed post-emergence (8 days cultivation), evaluated after 13 days, scale 0-5
Summary of the method: as §2

Amaranthus retroflexus [9] = assay: Post-emergence herbicidal activity, AMARE; details: 1000 g/Ha, sprayed post-emergence (8 days cultivation), evaluated after 13 days, scale 0-5
Summary of the method: as §2

Alopecurus myosuroides [10] = assay: Post-emergence herbicidal activity, ALOMY; details: 1000 g/Ha, sprayed post-emergence (8 days cultivation), evaluated after 13 days, scale 0-5
Summary of the method: as §2

Echinochloa crus-galli [11] = assay: Post-emergence herbicidal activity, ECHCG; details: 1000 g/Ha, sprayed post-emergence (8 days cultivation), evaluated after 13 days, scale 0-5
Summary of the method: as §2

Zea mays [12] = assay: Post-emergence herbicidal activity, ZEAMX; details: 1000 g/Ha, sprayed post-emergence (8 days cultivation), evaluated after 13 days, scale 0-5
Summary of the method: as §2

Compound	ABUTH damage score, application pre-emergence (Abutilon theophrasti [1])	AMARE damage score, application pre-emergence (Amaranthus retroflexus [2])	SETFA damage score, application pre-emergence (Setaria faberi [3])	ECHCG damage score, application pre-emergence (Echinochloa crus-galli [4])	ALOMY damage score, application pre-emergence (Alopecurus myosuroides [5])	ZEAMX damage score, application pre-emergence (Zea mays [6])	SETFA damage score, application post-emergence (Setaria faberi [7])	ABUTH damage score, application post-emergence (Abutilon theophrasti [8])	AMARE damage score, application post-emergence (Amaranthus retroflexus [9])	ALOMY damage score, application post-emergence (Alopecurus myosuroides [10])	ECHCG damage score, application post-emergence (Echinochloa crus-galli [11])	ZEAMX damage score, application post-emergence (Zea mays [12])
CCOC1C(O)N(c2cc(C(C)(C)C)ncn2)C(=O)N1CC (stereo not drawn) [Example A27]	1	1	0	0	0	0	3	4	0	1	0	2
CCCOC1C(OCCC)N(c2cc(C(C)(C)C)ncn2)C(=O)N1C (stereo not drawn) [Example A28]	0	0	0	0	0	0	0	0	0	0	0	0
C=CC1C(O)N(c2cc(C(C)(C)C)ncn2)C(=O)N1C (stereo not drawn) [Example A29]	5	5	4	4	4	1	5	5	5	4	4	1
COCC1NC(=O)N(c2cc(C(C)(C)C)ncn2)C1O (stereo not drawn) [Example A30]	5	5	4	4	4	1	4	5	5	4	3	1
CN1C(=O)N(c2cc(C(C)(C)C)ncn2)C(O)C1C(F)(F)F (stereo not drawn) [Example A31]	2	2	4	3	3	0	5	5	1	4	3	1
CC1NC(=O)N(c2cc(C(C)(C)C)ncn2)C1O (stereo not drawn) [Example A32]	3	2	1	1	1	0	2	5	2	3	2	1
CN1C(=O)N(c2cc(C(C)(C)C)ncn2)C(O)C1CC(F)(F)F (stereo not drawn) [Example A34]	4	5	2	1	1	0	3	5	2	3	0	2
CC1C(OC(=O)Nc2ccc([N+](=O)[O-])cc2)N(c2cc(C(C)(C)C)ncn2)C(=O)N1C (stereo not drawn) [Example A36]	5	5	4	4	4	3	5	5	5	5	5	5
